Assay results from PubChem BioAssay AID256 (DTP/NCI, 2004).
“And” between values parts separate entries of the source, which are not always exact repeats. Equal entries are not always repeated. Toxic doses and inconclusive results are not listed.

Test system: CD2F1 mice, L1210 leukemia ip, survival T/C
Assay: NCI In Vivo Anticancer Drug Screen. Data for tumor model L1210 Leukemia (intraperitoneal) in CD2F1 (CDF1) mice
Details: higher = longer survival
Procedure, shortened: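 Each value reflects a quotient of treated over vehicle control outcomes in mice with a transplanted tumor.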

[1] = endpoint: mean survival time, dose: 50.0 mg/kg/injection, schedule: Q01DX009 (ip), vehicle: saline with Tween-80
[2] = endpoint: mean survival time, dose: 100.0 mg/kg/injection, schedule: Q01DX009 (ip), vehicle: saline with Tween-80
[3] = endpoint: mean survival time, dose: 200.0 mg/kg/injection, schedule: Q01DX009 (ip), vehicle: saline with Tween-80

Structure (SMILES): O=C(CCCCl)Nc1cc([N+](=O)[O-])ccc1OCc1ccccc1
- T/C (endpoint: mean survival time, dose: 100.0 mg/kg/injection, schedule: Q01DX001 (ip), vehicle: saline): 94 % of control
- T/C (endpoint: mean survival time, dose: 200.0 mg/kg/injection, schedule: Q01DX001 (ip), vehicle: saline): 94 % of control
- T/C (endpoint: mean survival time, dose: 400.0 mg/kg/injection, schedule: Q01DX001 (ip), vehicle: saline): 94 % of control

Structure (SMILES): c1ccc(CNc2nnnc3ccccc23)cc1
- T/C (endpoint: mean survival time, dose: 100.0 mg/kg/injection, schedule: Q01DX001 (ip), vehicle: saline with Tween-80): 100 % of control
- T/C (endpoint: mean survival time, dose: 200.0 mg/kg/injection, schedule: Q01DX001 (ip), vehicle: saline with Tween-80): 88 % of control
- T/C (endpoint: mean survival time, dose: 400.0 mg/kg/injection, schedule: Q01DX001 (ip), vehicle: saline with Tween-80): 94 % of control

Structure (SMILES): C=C(c1ccc(OC)c(OC)c1)c1nccc2cc(OC)c(OC)cc12
- T/C (endpoint: median survival time, dose: 50.0 mg/kg/injection, schedule: Q01DX009 (ip), vehicle: Klucel (hydroxypropylcellulose) (HPC)): 101 % of control
- T/C (endpoint: median survival time, dose: 100.0 mg/kg/injection, schedule: Q01DX009 (ip), vehicle: Klucel (hydroxypropylcellulose) (HPC)): 89 % of control
- T/C (endpoint: median survival time, dose: 200.0 mg/kg/injection, schedule: Q01DX009 (ip), vehicle: Klucel (hydroxypropylcellulose) (HPC)): 95 % of control
- T/C (endpoint: median survival time, dose: 400.0 mg/kg/injection, schedule: Q01DX009 (ip), vehicle: Klucel (hydroxypropylcellulose) (HPC)): 97 % of control
- T/C (endpoint: median survival time, dose: 800.0 mg/kg/injection, schedule: Q01DX009 (ip), vehicle: Klucel (hydroxypropylcellulose) (HPC)): 108 % of control

Structure (SMILES): CS(=O)(=O)OCCNC(=O)N(CCCl)N=O
- T/C (endpoint: mean survival time, dose: 0.39 mg/kg/injection, schedule: Q01DX009 (ip), vehicle: water): 95 % of control
- T/C (endpoint: mean survival time, dose: 0.78 mg/kg/injection, schedule: Q01DX009 (ip), vehicle: water): 108 % of control
- T/C (endpoint: mean survival time, dose: 3.13 mg/kg/injection, schedule: Q01DX009 (ip), vehicle: water): 193 % of control
- T/C (endpoint: mean survival time, dose: 5.0 mg/kg/injection, schedule: Q01DX001 (ip), vehicle: distilled water + Tween-80): 120 % of control
- T/C (endpoint: mean survival time, dose: 6.25 mg/kg/injection, schedule: Q01DX009 (ip), vehicle: water): 356 % of control
- T/C (endpoint: mean survival time, dose: 20.0 mg/kg/injection, schedule: Q01DX001 (ip), vehicle: distilled water + Tween-80): 216 % of control and 342 % of control
- T/C (endpoint: mean survival time, dose: 40.0 mg/kg/injection, schedule: Q01DX001 (ip), vehicle: distilled water + Tween-80): 311 % of control and 500 % of control

Structure (SMILES): COC(c1ccccc1)C(C)O (centres undefined)
- T/C [1]: 100 % of control
- T/C [2]: 100 % of control
- T/C [3]: 95 % of control

Structure (SMILES): CCOC(=O)c1c(-c2ccccc2)csc1NS(=O)(=O)c1ccc(C)cc1
- T/C (endpoint: mean survival time, dose: 75.0 mg/kg/injection, schedule: Q01DX001 (ip), vehicle: saline): 96 % of control
- T/C (endpoint: mean survival time, dose: 150.0 mg/kg/injection, schedule: Q01DX001 (ip), vehicle: saline): 90 % of control
- T/C (endpoint: mean survival time, dose: 300.0 mg/kg/injection, schedule: Q01DX001 (ip), vehicle: saline): 101 % of control

Structure (SMILES): O=C1c2ccccc2C(=O)N1CCS(=O)(=O)O
- T/C (endpoint: mean survival time, dose: 100.0 mg/kg/injection, schedule: Q04DX002 (ip), vehicle: saline with Tween-80): 97 % of control
- T/C (endpoint: mean survival time, dose: 200.0 mg/kg/injection, schedule: Q04DX002 (ip), vehicle: saline with Tween-80): 94 % of control
- T/C (endpoint: mean survival time, dose: 400.0 mg/kg/injection, schedule: Q04DX002 (ip), vehicle: saline with Tween-80): 94 % of control

Structure (SMILES): Oc1ccc(CCl)c2cccnc12
- T/C (endpoint: median survival time, dose: 12.5 mg/kg/injection, schedule: Q01DX009 (ip), vehicle: saline): 102 % of control
- T/C (endpoint: median survival time, dose: 25.0 mg/kg/injection, schedule: Q01DX009 (ip), vehicle: saline): 102 % of control
- T/C (endpoint: median survival time, dose: 50.0 mg/kg/injection, schedule: Q01DX009 (ip), vehicle: saline): 102 % of control
- T/C (endpoint: median survival time, dose: 100.0 mg/kg/injection, schedule: Q01DX009 (ip), vehicle: saline): 95 % of control

Structure (SMILES): CCCC/C=C/C(C)(C)O
- T/C [1]: 107 % of control
- T/C [2]: 103 % of control
- T/C [3]: 107 % of control

Structure (SMILES): O=C(COc1ccccc1)N/N=C/c1cccc([N+](=O)[O-])c1
- T/C [3]: 89 % of control
- T/C (endpoint: mean survival time, dose: 400.0 mg/kg/injection, schedule: Q01DX009 (ip), vehicle: saline with Tween-80): 94 % of control

Structure (SMILES): CCN(CC)CCCOC(=O)c1ccc(N)cc1
- T/C (endpoint: mean survival time, dose: 12.5 mg/kg/injection, schedule: Q04DX003 (ip), vehicle: saline): 107 % of control
- T/C (endpoint: mean survival time, dose: 25.0 mg/kg/injection, schedule: Q04DX003 (ip), vehicle: saline): 105 % of control
- T/C (endpoint: mean survival time, dose: 50.0 mg/kg/injection, schedule: Q04DX003 (ip), vehicle: saline): 101 % of control

Structure (SMILES): CCCCCc1cc(/C=C2/N=C(c3ccc[nH]3)C=C2OC)[nH]c1C
- T/C (endpoint: mean survival time, dose: 0.25 mg/kg/injection, schedule: Q01DX009 (ip), vehicle: saline with Tween-80): 92 % of control
- T/C (endpoint: mean survival time, dose: 0.5 mg/kg/injection, schedule: Q01DX009 (ip), vehicle: saline with Tween-80): 97 % of control
- T/C (endpoint: mean survival time, dose: 1.0 mg/kg/injection, schedule: Q01DX009 (ip), vehicle: saline with Tween-80): 101 % of control
- T/C (endpoint: mean survival time, dose: 2.0 mg/kg/injection, schedule: Q01DX009 (ip), vehicle: saline with Tween-80): 103 % of control
- T/C (endpoint: mean survival time, dose: 4.0 mg/kg/injection, schedule: Q01DX009 (ip), vehicle: saline with Tween-80): 92 % of control
